Data taken from patent publication US20260069606A1, “Oxidative Stress and Diabetes Treatment with Cobinamide” (The Regents of the University of California, priority 2022, published 2026).

Legend:
[1] = tested on: streptozotocin diabetic mice; experiment: Fasting blood glucose and intraperitoneal glucose tolerance test; format: in vivo; conditions: fasting blood glucose and IPGTT after three months
Text: The water was replenished twice a week.
Over the three-month treatment period, the non-diabetic mice gained an average of 4.1±0.8 g. while the diabetic mice lost an average of 0.3 g, with wide variation in weight change among the latter mice.

[2] = tested on: H9c2 rat embryonal cardiomyocytes; experiment: Mitochondrial superoxide content, MitoSOX Red fluorescence; format: cell-based
Experimental: (§1) FIGS. 3A-3H. […] FIGS. 3A-3B. […] FIG. 3A. […] FIG. 3B. […] FIGS. 3C-3D. […] FIG. 3D. […] FIGS. 3E-3F. […] FIG. 3E. Representative blots are shown. […] FIG. 3F. […] FIG. 3G. […] FIG. 3H.
H9c2 cells were plated on glass cover slips in 24 well dishes, and 16 h later the medium was changed to phenol red-free DMEM supplemented with 20 mM Hepes, 0.1% fetal bovine serum, and 0.5% bovine serum albumin. […] MitoSOX Red is a dihydroethidium derivative containing triphenyl-phosphonium, which localizes it to respiring mitochondria. Its reaction with O2·^− yields 2-hydroxy-mitoethidium (2-OH-Mito-E″), whereas its reaction with other oxidative species yields mitoethidium (Mito-E^+)^67. These two oxidative derivatives have overlapping fluorescence spectra, but they can be distinguished by high performance liquid chromatography (HPLC)^68. Rotenone increased 2-OH-Mito-E^+ about two-fold, without increasing Mito-E^+. Thus, any increased fluorescence observed on treating cells with rotenone could be ascribed to an increase in 2-OH-Mito-E^+, and decreased fluorescence by an anti-oxidant in rotenone-treated cells was likely from a decrease in 2-OH-Mito-E^+.
The cells were then washed once with PBS, placed back in the DMEM experimental medium, and incubated with the indicated drugs for 30 min. At the end of the incubation period, nuclei of both the MitoSOX Red- and JC-1-treated cells were stained with […] 4′,6-diamidino-2-phenyl-indole (DAPI) for 3 min, washed once with PBS, and returned to the DMEM experimental medium. The cover slips were removed from the wells, mounted in the DMEM experimental medium, and red (MitoSOX Red and JC-1 aggregates), green (JC-1 monomers), and blue (DAPI) fluorescence intensity was assessed using a Keyence BZ-X700 fluorescence microscope at the following paired excitation/emission wavelengths, respectively: 560/630, 490/525, and 360/460 nm.
To assess if cobinamide reduces oxidative stress in cells and to compare its […] efficacy to that of cobalamin, imisopasem, and MnTBAP, several sets of experiments were performed. First, whether cobinamide reduces mitochondrial-generated O2·^− was evaluated using the fluorescent probe MitoSOX Red. H9c2 rat embryonal cardiomyocytes were treated with rotenone, an inhibitor of complex I, to increase mitochondrial O2·^−. […] Monitoring the UV-visible spectrum of cobinamide is a sensitive means to assess ligand binding^38.

[3] = mouse, in vivo
Experimental: It seemed possible, therefore, that the cobinamide administered to the mice could have increased their blood pressure, since ·NO is a potent vasodilator. Because diabetes can increase blood pressure, these studies were performed on a parallel set of non-diabetic mice of the same strain and sex and using the same concentration of histidyl-cobinamide in the drinking water as in the above-described studies.

[4] = tested on: Jun N-terminal kinase (JNK) phosphorylation in H9c2 cells; experiment: H2O2-induced JNK phosphorylation, immunoblotting; format: cell-based, rat
Text: as §1

[5] = mouse, in vivo; remark: listed apart in the source
Experimental: (§2) Male C57BL/6NHsd mice (20 weeks old) were housed three to four animals per cage in a temperature-controlled environment with a 12-h light/dark cycle and fed standard rodent chow with ad libitum access to food and water. After one week of acclimatization, mice weighing 30±3 g were injected intraperitoneally for five consecutive days with either saline (n=20) or 50 mg/kg streptozotocin (n=20) 69. […] The 16 diabetic mice and a corresponding number of the saline-injected, non-diabetic mice were split randomly in half to receive either plain drinking water or histidyl-cobinamide in the drinking water. The four groups of animals are referred to as: diabetic vehicle (D-Veh); diabetic, cobinamide-treated (D-Cbi); non-diabetic, vehicle (ND-Veh); and non-diabetic, cobinamide-treated (ND-Cbi). The histidyl-cobinamide concentration was 1 mM for the ND-Cbi mice, but because the diabetic mice drank more than the non-diabetic mice, the cobinamide concentration for the D-Cbi mice was decreased accordingly. The water was replenished twice a week.
(§3) After three months of treatment, the mice were weighed, fasted for 6 h, and then underwent an intraperitoneal glucose tolerance test (IPGTT) using 2 g/kg of a 20% glucose solution. Blood glucose concentrations were measured just before the glucose injection (time 0, fasting specimen) and at 15, 30, 60, and 120 min following the injection. […] Two days later, the mice were euthanized by inducing deep anesthesia with 200 mg/kg ketamine and 40 mg/kg xylazine administered by intraperitoneal injection, followed by exsanguination via an open cardiac puncture.
(§4) Type I diabetic mice were generated using streptozotocin, and then provided cobinamide in the drinking water for three months.

[6] = Plasma cobinamide concentration in mice given cobinamide in drinking water; conditions: discussion summary
Experimental: as §2, §3, §4

[7] = tested on: hearts of diabetic mice; experiment: Cardiac fibrosis (collagen deposition, Mallory trichrome) in diabetic mice; format: in vivo; conditions: three months histidyl-cobinamide in drinking water
Experimental: FIGS. 4A-4K. Cobinamide Rescues Flies from Paraquat Poisoning and Prevents Abnormal Lipid and Protein Oxidation, DNA Damage, and Fibrosis in the Hearts of Diabetic Mice. FIG. 4A. At time zero, 10 fruit flies (D. melanogaster) were transferred to vials with food to which either phosphate-buffered saline (PBS), 0.8 mM of the indicated drugs, 20 mM paraquat (PQ), or 20 mM paraquat with 0.8 mM of the indicated drugs had been added. The number of live flies was counted each day for 7 d. The experiment was repeated seven times, for a total of 70 flies per condition. The percent surviving flies was calculated; error bars represent standard deviations and are shown in one direction only for sake of clarity. FIGS. 4B-4K. […] The amount of 8-isoprostane (FIG. 4B) was measured by ELISA, protein oxidation (FIGS. 4C-4D) was assessed by immunoblotting, and nitrotyrosine content (FIGS. 4E-4F) was assessed by immunohistochemistry. DNA damage was assessed by 8-OH-deoxyguanosine staining (FIGS. 4G-4H) and a long amplicon qPCR-based assay (FIG. 4I). Cardiac fibrosis (FIGS. 4J-4K) was assessed by Mallory trichrome staining, which stains collagen blue. […] For Panels C, D, and I, frozen heart samples were selected randomly from each of the four groups and were analyzed. For Panel D, blots were analyzed by densitometric scanning using Li-Cor Odyssey software, with the density of each lane normalized to the actin band. […]

For `C/C1=C2/[N-][C@H]([C@H](CC(N)=O)[C@@]2(C)CCC(=O)NC[C@@H](C)O)[C@]2(C)N=C(/C(C)=C3N=C(/C=C4N=C1[C@@H](CCC(N)=O)C\4(C)C)[C@@H](CCC(N)=O)[C@]\3(C)CC(N)=O)[C@@H](CCC(N)=O)[C@]2(C)CC(N)=O.[Co+3]` [cobinamide, aquohydroxo-cobinamide], the “Glucose intolerance versus mice not receiving drug” value [1] was “same degree of glucose intolerance”, the “MitoSOX red fluorescence in rotenone-treated cells” value ([2]; H9c2, 5 μM rotenone 30 min, drugs at 2.5 μM) was “markedly reduced fluorescence” and the “MitoSOX red fluorescence, drug alone” value ([2]; H9c2, vehicle-treated cells without rotenone, 2.5 μM) was “no change”. The Blood pressure [3] was “no change in blood pressure”, the “JNK phosphorylation in H2O2-treated cells” value ([4]; H9c2, 100 μM H2O2 30 min, drugs at 100 μM) was “reduced JNK phosphorylation to a level that was indistinguishable from vehicle-treated cells” and the “JNK phosphorylation or total cellular JNK in the absence of H2O2” value ([4]; H9c2, drug alone) was “neither Cbi(III), Cbi(II) nor the other three drugs affected JNK phosphorylation”. For the same compound, the “Plasma cobinamide concentration, diabetic mice” value [5] was 0.55 ± 0.36 µM, the “Plasma cobinamide concentration, non-diabetic mice” value [5] was 0.11 ± 0.07 µM and the “Concentration in the plasma of mice that received cobinamide in drinking water” value [6] was 100 to 500 nM. The “Collagen content in hearts of diabetic mice” value [7] was “reduced collagen content in the hearts of the diabetic mice essentially to that of non-diabetic mice”.
